Consider six molecules from ChEMBL document CHEMBL5137098, “Discovery of Substituted Di(pyridin-2-yl)-1,2,4-thiadiazol-5-amines as Novel Macrofilaricidal Compounds for the Treatment of Human Filarial Infections” (J Med Chem, 2022).

A short description of series [1]: Metabolic stability in human liver S9 fraction assessed as compound remaining at 3 uM measured at 60 mins by LC-MS/MS analysis. It counts as ADME, subcellular. Particulars: read-out: Stability.
A short description of series [2]: Metabolic stability in rat liver S9 fraction assessed as compound remaining at 3 uM measured at 60 mins by LC-MS/MS analysis. It counts as ADME, subcellular. Conditions: read-out: Stability.
The next series has as its system TK6. Kind of series: Cytotoxicity in human TK6 cells in presence of Aroclor 1254-induced rat liver S9 fraction by micronucleus test. It counts as toxicity, cell-based.
Series [3] in a line: Mutagenicity in Salmonella typhimurium TA100 in absence of liver S9 fraction by AMES test. It counts as toxicity. Particulars: salmonella enterica subsp. enterica serovar typhimurium.
The nature of series [4]: Mutagenicity in Salmonella typhimurium TA1535 in absence of liver S9 fraction by AMES test. Conditions: salmonella enterica subsp. enterica serovar typhimurium. It counts as toxicity.
Series [5] can be described thus: Mutagenicity in Escherichia coli WP2 uvrA in absence of liver S9 fraction by AMES test. It counts as toxicity.
A short description of series [6]: Mutagenicity in Salmonella typhimurium TA97 in absence of liver S9 fraction by AMES test. It counts as toxicity. Particulars: salmonella enterica subsp. enterica serovar typhimurium.
Series [7] is described as follows: Mutagenicity in Escherichia coli WP2 uvrA in presence of liver S9 fraction by AMES test. It counts as toxicity, subcellular.
A short description of series [8]: Mutagenicity in Salmonella typhimurium TA1535 in presence of liver S9 fraction by AMES test. It counts as toxicity, subcellular. Particulars: salmonella enterica subsp. enterica serovar typhimurium.
A short description of series [9]: Mutagenicity in Salmonella typhimurium TA100 in presence of liver S9 fraction by AMES test. It counts as toxicity, subcellular. Particulars: salmonella enterica subsp. enterica serovar typhimurium.
Series [10] can be described thus: Mutagenicity in Salmonella typhimurium TA97 in presence of liver S9 fraction by AMES test. Particulars: salmonella enterica subsp. enterica serovar typhimurium. It counts as toxicity, subcellular.
A short description of series [11]: Mutagenicity in Salmonella typhimurium TA98 in presence of liver S9 fraction by AMES test. It counts as toxicity, subcellular. Conditions: salmonella enterica subsp. enterica serovar typhimurium.
In series [12] the test system is Litomosoides sigmodontis. Kind of series: Antiparasitic activity against Litomosoides sigmodontis infected in Meriones assessed as reduction in worm burden at 15 mg/kg, sc BID administered for 7 days. It counts as functional. Further details: scale not given: the % may be the effect or the level left. Particulars: time 7 day.
Series [13] in a line: Mutagenicity in Salmonella typhimurium TA98 in absence of liver S9 fraction by AMES test. It counts as toxicity. Conditions: salmonella enterica subsp. enterica serovar typhimurium.
Series [14] concerns Litomosoides sigmodontis. Kind of series: Antiparasitic activity against Litomosoides sigmodontis infected in BALB/c mouse assessed as reduction in worm burden at 10 mg/kg, po qd administered for 7 days. Conditions: time 7 day. Further details: scale not given: the % may be the effect or the level left. It counts as functional.
The test system of series [15] is Litomosoides sigmodontis. Kind of series: Antiparasitic activity against Litomosoides sigmodontis infected in BALB/c mouse assessed as reduction in worm burden at 30 mg/kg, sc BID administered for 7 days. Conditions: time 7 day. It counts as functional. Further details: scale not given: the % may be the effect or the level left.
Series [16] concerns Litomosoides sigmodontis. Put plainly: Antiparasitic activity against Litomosoides sigmodontis infected in BALB/c mouse assessed as reduction in worm burden at 30 mg/kg, po BID administered for 6 days. Conditions: time 6 day. It counts as functional. Set-up: scale not given: the % may be the effect or the level left.
In series [17] the test system is Litomosoides sigmodontis. Put plainly: Antiparasitic activity against Litomosoides sigmodontis infected in BALB/c mouse assessed as reduction in worm burden at 30 mg/kg, po BID administered for 7 days. Conditions: time 7 day. It counts as functional. Set-up: scale not given: the % may be the effect or the level left.

On to `Cc1nccnc1Nc1nc(-c2ccc(OC(C)C)cn2)ns1`, for which the remaining at 1 h, 3 µM in series [1] was 94%; in [2], 100%. Further, the Activity entry with TK6 was “Non-Toxic”.

Turning to `CC(=O)N(C)c1cccnc1Nc1nc(-c2ccc(OC(C)C)cn2)ns1`, the Activity entry in [3], in [4], in series [5], in series [6], in [7] and in series [8] was “Non-Toxic” throughout. Moreover, the Activity result in [9] is given as “Non-Toxic”; in series [10] it was “Non-Toxic”; in series [11] it was “Non-Toxic”; in the series on Litomosoides sigmodontis [12] it was 58.9%; in series [13], “Non-Toxic”.

Turning to `Cc1cccnc1Nc1nc(-c2ccc(OC(C)C)cn2)ns1`, the remaining at 1 h, 3 µM in [1] and in [2] was 100% in each case. In addition, the Activity in the series with Litomosoides sigmodontis [14] is 58.8%.

`Cc1cccnc1Nc1nc(-c2ccc(OC3CCN(C4CC4)CC3)cn2)ns1`: the remaining at 1 h, 3 µM came out at 83% in series [1] and 76% in [2]. In the series on Litomosoides sigmodontis [15], the Activity came to 85.5%.

As for `CC(C)c1ccnc(-c2nsc(Nc3cc(C(F)(F)F)ccn3)n2)c1`, the remaining at 1 h, 3 µM in series [1] was determined as 65%; in series [2], 45%. In the series on Litomosoides sigmodontis [16], the Activity came to 46%.

With `CC(C)Oc1ccc(-c2nsc(Nc3ncccc3C(C)C)n2)nc1`, the remaining at 1 h, 3 µM in [1] came out at 99%; in [2], 82%. Also, in the series with Litomosoides sigmodontis [17], the Activity turned out to be 58.8%.
